From patent US12491170B2, “Stable treprostinil prodrugs” (United Therapeutics Corporation, priority 2020, dated 2025)
Like-named read-outs stand apart in the source and are kept apart here.

How the values were obtained:
[1] = Stability in liver microsomes, human
Experimental: (§1) Mixed-gender human liver microsomes, male Sprague-Dawley rat liver microsomes, and male Beagle dog liver microsomes were purchased from XenoTech. The reaction mixture, minus NADPH, was prepared as described below. […] An aliquot of the reaction mixture (without cofactor) was equilibrated in a shaking water bath at 37° C. for 5 minutes. The reaction was initiated by the addition of cofactor, and the mixture was incubated in a shaking water bath at 37° C. Aliquots (200 μL) were withdrawn at 0, 10, 20, 30, and 60 minutes. Test article samples were immediately combined with 400 μL of ice-cold acetonitrile (ACN) to terminate the reaction. […] The samples were then mixed and centrifuged to precipitate proteins. Aliquots of the supernatant were removed, diluted 1:1 into distilled water containing internal standard, and analyzed by LC-MS/MS against calibration standards prepared in a matched matrix. All samples were analyzed for the dosed prodrugs as well as the drug, treprostinil. The test article concentration was compared to the concentration at time 0 to determine the percent of test article remaining at each time point. Half-lives and clearance were calculated using GraphPad software, fitting to a single-phase exponential decay equation.
(§2) • Liver Microsomes 0.5 mg/mL • NADPH (cofactor) 1 mM • Potassium Phosphate, pH 7.4 100 mM • Magnesium Chloride 5 mM • Test Article 1 μM

[2] = Stability in cryopreserved hepatocytes, human
Experimental: (§3) Mixed-gender human cryopreserved hepatocytes, male Sprague-Dawley rat cryopreserved hepatocytes, and male Beagle dog cryopreserved hepatocytes were purchased from XenoTech. The hepatocytes were thawed and prepared according to the vendor's instructions, pooled into Krebs Henseleit buffer (KHB, pH 7.4), and kept on ice prior to the experiments. […] The final DMSO content in the incubation mixture was ≤0.1%. […] Aliquots of the test article were withdrawn (n=1) at 0, 15, 30, 60, and 120 minutes. […] Aliquots of 7-HC were withdrawn (n=1) at 0 and 15 minutes. The reaction was immediately terminated by adding two volumes of ice-cold acetonitrile (ACN) to the test article samples and three volumes of ACN containing internal standard to the positive control samples. The samples were then mixed and centrifuged to precipitate proteins. An aliquot of the supernatant was then diluted with water and analyzed by LC-MS/MS against calibration standards prepared in a matched matrix. […] All test article samples were analyzed for the dosed prodrugs as well as the drug, treprostinil. The test article concentration was compared to the concentration at time 0 to determine the percent of test article remaining at each time point. Half-lives and clearance values were calculated using GraphPad software, fitting to a single-phase exponential decay equation.

[3] = Stability in cryopreserved hepatocytes, rat
Experimental: as §3

[4] = Stability in cryopreserved hepatocytes, dog
Experimental: as §3

[5] = rat
[6] = dog
[7] = Stability in liver microsomes, rat
Experimental: as §1, §2

[8] = Stability in liver microsomes, dog
Experimental: as §1, §2

[9] = Hydrolysis of prodrugs to treprostinil at pH 6, 7, 8 and 40 C; assay type: physicochemical
Description: Tables 24, 25 and 26 present data for hydrolysis of selected treprostinil prodrugs at pH 6, 7 and 8, respectively, and 40 C.

[10] = Stability in human subcutaneous skin homogenate; conditions: Skin Homogenate, Human
Experimental: The pool of skin homogenate was prepared by combining equal volumes of three lots that were tested in the initial skin homogenate lot assessment experiments.
A stock solution of calcein-AM was first prepared at 5 mM in DMSO, followed by a serial dilution into methanol at a concentration of 100 μM. 495 μL of skin homogenate was thawed and warmed to 37° C. A 5 μL aliquot of the 100 μM calcein-AM solution was spiked into the skin homogenate, for a final calcein-AM dosing concentration of 1 μM. After briefly mixing, 150 μL aliquots were removed in triplicate and transferred to 96-well Falcon plates. The plates were placed onto a Thermomixer and maintained at 37° C., with gentle shaking for the duration of the experiment. At each time point (0, 15, 30, 60, and 120 minutes), the plate was removed from the Thermomixer and transferred to a FLUOstar® plate reader, and the formation of calcein (Sigma) was monitored by fluorescence (490/515 nm). Calibration standards of calcein were prepared in distilled water by serial dilutions of a calcein DMSO stock at final concentrations ranging from 1 μM to 1 nM. All samples and standards were read concurrently (Table 13).
For each of the test articles, 495 μL of skin homogenate was added to triplicate centrifuge tubes. To each tube, 5 μL of a 100 μM solution of test article was added, for a final test article dosing concentration of 1 μM. The tubes were placed onto a Thermomixer and maintained at 37° C. with gentle shaking for the duration of the experiment. At each time point (0, 30, 60, and 120 minutes), a 100 μL aliquot was removed from each tube and combined with 200 μL of acetonitrile to stop the stability reaction. The tubes were mixed and centrifuged at 3000 rpm for 10 minutes. Aliquots of supernatant were removed and diluted 1:1 with distilled water containing internal standard (2 μM treprostinil-d4). Calibration standards for the treprostinil analysis were prepared for each test article in a surrogate matrix (supernatant from a mixture of 1:2 human plasma:acetonitrile), at concentrations ranging from 1 μM to 1 nM. Calibration standards were also diluted 1:1 with distilled water containing internal standard. The disappearance of each individual test article was monitored, as well as the formation of treprostinil (Table 14 and Table 15).

CCCCCC(CCC1C(O)CC2Cc3c(cccc3OCC(=O)O)CC21)OC(=O)OC (centres unmarked) [IV]
AUC ([1]; human): 16.85 µmol·min/L
AUC ([2]; human): 39.76 µmol·min/L
AUC ([3]; rat): 70.03 µmol·min/L
AUC ([4]; dog): 47.99 µmol·min/L
AUC [5]: 49.70 µmol·min/L
AUC [6]: 55.95 µmol·min/L

CCCCCC(CCC1C(O)CC2Cc3c(cccc3OCC(=O)O)CC21)OC(=O)c1ccc(OC(F)(F)F)cc1 (centres unmarked) [LXIII]
Trep Concentration 0 min [1]: 0.12 µM
Trep Concentration 10 min [1]: 0.184 µM
Trep Concentration 20 min [1]: 0.24 µM
Trep Concentration 30 min [1]: 0.268 µM
Trep Concentration 60 min [1]: 0.275 µM
AUC ([1]; human): 14.33 µmol·min/L
Trep Concentration 0 min [7]: 0.0393 µM
Trep Concentration 10 min [7]: 0.0539 µM
Trep Concentration 20 min [7]: 0.0653 µM
Trep Concentration 30 min [7]: 0.0747 µM
Trep Concentration 60 min [7]: 0.0824 µM
Trep Concentration 0 min [8]: 0.104 µM
Trep Concentration 10 min [8]: 0.16 µM
Trep Concentration 20 min [8]: 0.222 µM
Trep Concentration 30 min [8]: 0.243 µM
Trep Concentration 60 min [8]: 0.342 µM
AUC [5]: 4.12 µmol·min/L
AUC [6]: 14.33 µmol·min/L

CCCCCC(CCC1C(O)CC2Cc3c(cccc3OCC(=O)O)CC21)OC(=O)c1ccc(O)cc1 (centres unmarked) [Prodrug LXVIII]
Hydrolysis to treprostinil, % Area, t = 1 week ([9]; pH 6, 40 C.): 0.00 % Area
Hydrolysis to treprostinil, % Area, t = 2 weeks ([9]; pH 6, 40 C.): 0.00 % Area
Hydrolysis to treprostinil, % Area, t = 3 weeks ([9]; pH 6, 40 C.): 0.00 % Area
Hydrolysis to treprostinil, % Area, t = 1 week ([9]; pH 7, 40 C.): 0.00 % Area
Hydrolysis to treprostinil, % Area, t = 2 weeks ([9]; pH 7, 40 C.): 0.00 % Area
Hydrolysis to treprostinil, % Area, t = 3 weeks ([9]; pH 7, 40 C.): 0.00 % Area
Hydrolysis to treprostinil, % Area, t = 1 week ([9]; pH 8, 40 C.): 0.00 % Area
Hydrolysis to treprostinil, % Area, t = 2 weeks ([9]; pH 8, 40 C.): 0.00 % Area
Hydrolysis to treprostinil, % Area, t = 3 weeks ([9]; pH 8, 40 C.): 0.00 % Area

CCCCCC(CCC1C(O)CC2Cc3c(cccc3OCC(=O)O)CC21)OC(=O)c1ccc(O)c(O)c1 (centres unmarked) [Prodrug LXVI]
Hydrolysis to treprostinil, % Area, t = 1 week ([9]; pH 6, 40 C.): 0.47 % Area
Hydrolysis to treprostinil, % Area, t = 2 weeks ([9]; pH 6, 40 C.): 1.2 % Area
Hydrolysis to treprostinil, % Area, t = 3 weeks ([9]; pH 6, 40 C.): 1.9 % Area
Hydrolysis to treprostinil, % Area, t = 1 week ([9]; pH 7, 40 C.): 0.05 % Area
Hydrolysis to treprostinil, % Area, t = 2 weeks ([9]; pH 7, 40 C.): 1.0 % Area
Hydrolysis to treprostinil, % Area, t = 3 weeks ([9]; pH 7, 40 C.): 1.5 % Area
Hydrolysis to treprostinil, % Area, t = 1 week ([9]; pH 8, 40 C.): 0.73 % Area
Hydrolysis to treprostinil, % Area, t = 2 weeks ([9]; pH 8, 40 C.): 1.6 % Area
Hydrolysis to treprostinil, % Area, t = 3 weeks ([9]; pH 8, 40 C.): 2.6 % Area

CCCCCC(O)CCC1C(O)CC2Cc3c(cccc3OCC(=O)NCC(=O)O)CC21 (centres unmarked) [VII]
AUC ([1]; human): 0.00 µmol·min/L
AUC ([2]; human): 0.00 µmol·min/L
AUC ([3]; rat): 10.79 µmol·min/L
AUC ([4]; dog): 0.00 µmol·min/L
AUC [5]: 0.39 µmol·min/L
AUC [6]: 0.00 µmol·min/L

CCCCCC(CCC1C(O)CC2Cc3cccc(OCC(=O)O)c3CC21)OC(=O)CCC(=O)N1CCN(C)CC1 (centres unmarked) [XXXIV]
Trep Concentration 0 min ([1]; Liver Microsomes, Human, 0 min): 0 µM
Trep Concentration 10 min ([1]; Liver Microsomes, Human, 10 min): 0 µM
Trep Concentration 20 min ([1]; Liver Microsomes, Human, 20 min): 0 µM
Trep Concentration 30 min ([1]; Liver Microsomes, Human, 30 min): 0 µM
Trep Concentration 60 min ([1]; Liver Microsomes, Human, 60 min): 0 µM
AUC ([1]; Liver Microsomes, Human, treprostinil 0-60 min): 0.00 µmol·min/L
Trep Concentration 0 min ([7]; Liver Microsomes, Rat, 0 min): 0 µM
Trep Concentration 10 min ([7]; Liver Microsomes, Rat, 10 min): 0 µM
Trep Concentration 20 min ([7]; Liver Microsomes, Rat, 20 min): 0.0132 µM
Trep Concentration 30 min ([7]; Liver Microsomes, Rat, 30 min): 0.0158 µM
Trep Concentration 60 min ([7]; Liver Microsomes, Rat, 60 min): 0.0224 µM
AUC ([7]; Liver Microsomes, Rat, treprostinil 0-60 min): 0.78 µmol·min/L
Trep Concentration 0 min ([8]; Liver Microsomes, Dog, 0 min): 0 µM
Trep Concentration 10 min ([8]; Liver Microsomes, Dog, 10 min): 0 µM
Trep Concentration 20 min ([8]; Liver Microsomes, Dog, 20 min): 0 µM
Trep Concentration 30 min ([8]; Liver Microsomes, Dog, 30 min): 0 µM
Trep Concentration 60 min ([8]; Liver Microsomes, Dog, 60 min): 0.0104 µM
AUC ([8]; Liver Microsomes, Dog, treprostinil 0-60 min): 0.16 µmol·min/L
AUC ([2]; Hepatocytes, Human, AUC of treprostinil concentration 0-120 min): 1.90 µmol·min/L
Trep Concentration (μM) 0 min ([2]; Hepatocytes, Human, treprostinil formed from test article dosed, 0 min): 0 µM
Trep Concentration (μM) 15 min ([2]; Hepatocytes, Human, treprostinil formed from test article dosed, 15 min): 0 µM
Trep Concentration (μM) 30 min ([2]; Hepatocytes, Human, treprostinil formed from test article dosed, 30 min): 0.0107 µM
Trep Concentration (μM) 60 min ([2]; Hepatocytes, Human, treprostinil formed from test article dosed, 60 min): 0.0174 µM
Trep Concentration (μM) 120 min ([2]; Hepatocytes, Human, treprostinil formed from test article dosed, 120 min): 0.0293 µM
AUC ([3]; Hepatocytes, Rat, AUC of treprostinil concentration 0-120 min): 8.62 µmol·min/L
Trep Concentration (μM) 0 min ([3]; Hepatocytes, Rat, treprostinil formed from test article dosed, 0 min): 0 µM
Trep Concentration (μM) 15 min ([3]; Hepatocytes, Rat, treprostinil formed from test article dosed, 15 min): 0.023 µM
Trep Concentration (μM) 30 min ([3]; Hepatocytes, Rat, treprostinil formed from test article dosed, 30 min): 0.0447 µM
Trep Concentration (μM) 60 min ([3]; Hepatocytes, Rat, treprostinil formed from test article dosed, 60 min): 0.0915 µM
Trep Concentration (μM) 120 min ([3]; Hepatocytes, Rat, treprostinil formed from test article dosed, 120 min): 0.105 µM
AUC ([4]; Hepatocytes, Dog, AUC of treprostinil concentration 0-120 min): 1.30 µmol·min/L
Trep Concentration (μM) 0 min ([4]; Hepatocytes, Dog, treprostinil formed from test article dosed, 0 min): 0 µM
Trep Concentration (μM) 15 min ([4]; Hepatocytes, Dog, treprostinil formed from test article dosed, 15 min): 0 µM
Trep Concentration (μM) 30 min ([4]; Hepatocytes, Dog, treprostinil formed from test article dosed, 30 min): 0.0101 µM
Trep Concentration (μM) 60 min ([4]; Hepatocytes, Dog, treprostinil formed from test article dosed, 60 min): 0.0153 µM
Trep Concentration (μM) 120 min ([4]; Hepatocytes, Dog, treprostinil formed from test article dosed, 120 min): 0.0127 µM
Trep Concentration 0 min ([10]; 0 min): 0 µM
Trep Concentration 30 min ([10]; 30 min): 0 µM
Trep Concentration 60 min ([10]; 60 min): 0 µM
Trep Concentration 120 min ([10]; 120 min): 0 µM
AUC ([10]; treprostinil 0-120 min): 0.00 µmol·min/L
